Assay results from the supplement of paper PMC10307832.

Experiments:
Experiment in all cases: relative viability (nuclei count vs DMSO), 5 days (fraction); higher = more cells survive
[1] = compound: CC1CC(=O)N(C2=CN=C(N=C2N1C3CCCC3)NC4=C(C=C(C=C4)C(=O)NC5CCN(CC5)C)OC)C [NPK76-II-72-1] + CC(=O)c1c(C)c2cnc(Nc3ccc(N4CCNCC4)cn3)nc2n(C2CCCC2)c1=O [Palbociclib] (partner 0.5 µM)
Method in brief: (§1)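 After 5 days of treatment, lung cancer cells in 1536-well plates were fixed and stained in a single step (final 0.05% Triton X-100, 1% formaldehyde, 1 ug/ml Hoechst) and their nuclei counted on 4× images. Treatment had been applied by pin tool the day after seeding as one drug alone or as a fixed anchor-drug dose with five library-drug doses (not always all listed) in √10 steps. Relative viability is the nuclei count of treated wells divided by that of vehicle wells, and values are medians of duplicate plates.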

[2] = compound: CC1CC(=O)N(C2=CN=C(N=C2N1C3CCCC3)NC4=C(C=C(C=C4)C(=O)NC5CCN(CC5)C)OC)C [NPK76-II-72-1] + C[C@@H](Oc1cc(-c2cnn(C3CCNCC3)c2)cnc1N)c1c(Cl)ccc(F)c1Cl [Crizotinib] (partner 1 µM)
Method in brief: as §1

BI-2536 + Bortezomib = compound: CC[C@@H]1C(=O)N(C)c2cnc(Nc3ccc(C(=O)NC4CCN(C)CC4)cc3OC)nc2N1C1CCCC1 [BI-2536] + CC(C)C[C@H](NC(=O)[C@H](Cc1ccccc1)NC(=O)c1cnccn1)B(O)O [Bortezomib] (partner 0.002 µM)
Method in brief: as §1

BI-2536 + Vorinostat = compound: CC[C@@H]1C(=O)N(C)c2cnc(Nc3ccc(C(=O)NC4CCN(C)CC4)cc3OC)nc2N1C1CCCC1 [BI-2536] + O=C(CCCCCCC(=O)Nc1ccccc1)NO [Vorinostat] (partner 1 µM)
Method in brief: as §1

Cell Line | relative viability ([1]; first compound 0.01 µM) | relative viability ([1]; first compound 0.03162 µM) | relative viability ([1]; first compound 0.1 µM) | relative viability ([1]; first compound 0.3162 µM) | relative viability ([1]; first compound 1 µM) | relative viability ([2]; first compound 0.03162 µM) | relative viability ([2]; first compound 0.1 µM) | relative viability ([2]; first compound 1 µM) | relative viability (BI-2536 + Bortezomib; first compound 0.01 µM) | relative viability (BI-2536 + Bortezomib; first compound 0.03162 µM) | relative viability (BI-2536 + Bortezomib; first compound 0.1 µM) | relative viability (BI-2536 + Bortezomib; first compound 0.3162 µM) | relative viability (BI-2536 + Bortezomib; first compound 1 µM) | relative viability (BI-2536 + Vorinostat; first compound 0.01 µM) | relative viability (BI-2536 + Vorinostat; first compound 0.03162 µM) | relative viability (BI-2536 + Vorinostat; first compound 0.1 µM) | relative viability (BI-2536 + Vorinostat; first compound 0.3162 µM) | relative viability (BI-2536 + Vorinostat; first compound 1 µM) | relative viability ([2]; first compound 0.01 µM) | relative viability ([2]; first compound 0.3162 µM)
HCC-78 | 0.423 | 0.44 | 0.425 | 0.385 | 0.502 | 0.33 | 0.355 | 0.368 | 0.505 | 0.559 | 0.487 | 0.352 | 0.219 | 0.421 | 0.49 | 0.379 | 0.268 | 0.27 |  | 
HCC-366 | 0.386 | 0.438 | 0.386 | 0.363 | 0.458 | 0.683 | 0.694 | 0.59 | 1.09 | 1.1 | 0.155 | 0.0158 | 0.0163 | 0.336 | 0.347 | 0.0476 | 0.0183 | 0.0214 | 0.458 | 0.429
HCC-827 | 0.474 | 0.457 | 0.488 | 0.491 | 0.561 | 0.912 | 0.902 | 0.892 | 1.07 | 0.971 | 0.974 | 0.638 | 0.377 | 0.884 | 0.943 | 0.665 | 0.222 | 0.227 | 1.01 | 0.895
HOP-62 | 0.397 | 0.458 | 0.462 | 0.438 | 0.511 | 0.907 | 0.75 | 0.982 | 0.603 | 1.34 | 0.329 | 0.114 | 0.103 | 0.528 | 0.74 | 0.188 | 0.104 | 0.13 | 0.85 | 0.896
LC-2-ad | 0.491 | 0.508 | 0.537 | 0.498 | 0.475 |  | 0.453 | 0.51 | 1.06 | 0.923 | 0.112 | 0.124 | 0.104 | 0.63 | 0.274 | 0.181 | 0.198 | 0.221 | 0.449 | 0.44
LCLC-97TM1 | 0.196 | 0.215 | 0.209 | 0.211 | 0.203 | 0.414 | 0.438 | 0.354 | 0.658 | 0.408 | 0.0735 | 0.0639 | 0.0648 | 0.721 | 0.787 | 0.0652 | 0.078 | 0.0571 |  | 0.259
LCLC-103H |  | 0.501 | 0.501 | 0.565 | 0.484 | 0.962 | 1.04 | 1.18 | 1.05 | 1.07 | 0.813 | 0.986 | 0.19 | 0.767 | 0.776 | 0.265 | 0.168 | 0.239 | 0.919 | 0.916
LOU-NH91 | 0.538 | 0.52 | 0.496 | 0.52 | 0.528 | 0.735 | 0.693 | 0.764 | 0.506 | 0.496 | 0.458 | 0.287 | 0.334 | 0.915 | 0.865 | 0.443 | 0.311 | 0.264 | 0.735 | 0.635
LU99A | 0.404 | 0.437 | 0.425 | 0.393 | 0.443 | 0.596 | 0.649 | 0.584 | 1.04 | 1.12 | 0.244 | 0.19 | 0.193 | 0.406 | 0.405 | 0.151 | 0.162 | 0.163 | 0.563 | 0.508
LXF-289 | 0.594 | 0.58 | 0.562 | 0.577 | 0.633 | 0.84 | 0.823 | 0.828 | 0.991 | 0.91 | 0.485 | 0.0621 | 0.0527 | 0.855 | 0.684 | 0.372 | 0.0658 | 0.0936 | 0.829 | 0.801
NCI-H23 | 0.537 | 0.504 | 0.412 | 0.501 | 0.6 | 0.563 |  | 0.528 | 1.14 | 0.885 | 0.182 | 0.117 | 0.139 | 0.527 | 0.555 | 0.133 | 0.133 | 0.157 | 0.544 | 0.556
NCI-H322M | 0.485 | 0.492 | 0.48 | 0.482 | 0.47 | 0.944 | 0.868 | 0.983 | 1.32 | 1.22 | 1.34 | 1.34 | 0.311 | 0.926 | 0.829 | 0.641 | 0.45 | 0.422 | 0.968 | 0.873
NCI-H441 | 0.232 | 0.26 | 0.251 | 0.205 | 0.254 | 0.692 | 0.505 | 0.699 | 0.333 | 0.719 | 0.209 | 0.152 | 0.177 | 0.668 | 0.601 | 0.263 | 0.212 | 0.178 | 0.928 | 0.7
NCI-H460 | 0.157 | 0.105 | 0.225 | 0.121 | 0.219 | 1.03 | 1.06 | 0.898 | 1.21 | 0.65 | 0.265 | 0.0115 | 0.0118 | 0.735 | 1.07 | 0.119 | 0.0148 | 0.014 | 0.945 | 0.876
NCI-H520 | 0.235 | 0.24 | 0.267 | 0.26 | 0.247 | 0.914 | 0.716 | 0.751 | 0.741 | 0.321 |  | 0.194 | 0.123 | 0.599 | 0.25 | 0.24 | 0.181 | 0.179 | 0.713 | 0.75
